{
  "source": "patent US7407760B2",
  "about": "(priority 2003, dated 2008)",
  "key": {"[1]": {"target": "Syrian hamster Sc237 PrP27-30 / immunopurified hamster PrP^C (Mesocricetus auratus, UniProt P04273)", "sequence (P04273 23-231 limits assumed)": "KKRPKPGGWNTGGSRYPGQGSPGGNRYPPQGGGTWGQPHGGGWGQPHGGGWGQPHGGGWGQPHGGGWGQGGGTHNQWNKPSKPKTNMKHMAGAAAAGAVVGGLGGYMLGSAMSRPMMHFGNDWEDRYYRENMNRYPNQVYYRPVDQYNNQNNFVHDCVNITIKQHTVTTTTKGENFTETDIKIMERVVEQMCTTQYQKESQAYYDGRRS", "format": "biochemical"}, "PrP^Sc [2]": {"target": "T1, PrP^Sc (Mesocricetus auratus, UniProt P04273)", "T1 sequence (P04273 23-231 limits assumed)": "as above", "format": "biochemical, hamster"}, "PrP^Sc [3]": {"target": "T1, PrP^Sc"}, "PrP^Sc [4]": {"target": "T1, PrP^Sc", "format": "biochemical, hamster", "conditions": "for IC50: read-out: IC50 of inhibition of PrP^Sc amplification; for effect on inhibition by CuCl2, added prior to CuCl2: 4 mM EDTA or 50 mM imidazole prior to 1 μM CuCl2; for effect on inhibition by CuCl2, added shortly after CuCl2: after 1 μM CuCl2; for effect of chelating compounds on PrP^Sc amplification: no metal added"}, "PrP^C": {"target": "PrP^C (Mesocricetus auratus, UniProt P04273)", "sequence (P04273 23-231 limits assumed)": "as above"}, "PrP^C/PrP^Sc binding": {"target": "PrP^C/PrP^Sc binding (Mesocricetus auratus, UniProt P04273)", "sequence (P04273 23-231 limits assumed)": "as above"}, "Hamster Sc237 PrP^Sc": {"target": "Hamster Sc237 PrP^Sc (Mesocricetus auratus, UniProt P04273)", "sequence (P04273 23-231 limits assumed)": "as above", "format": "biochemical"}, "PrP^Sc [5]": {"target": "T1, PrP^Sc", "format": "biochemical, hamster", "remark": "listed apart in the source"}},
  "note": "Read-outs that look alike come from different tables or passages of the source.",
  "data": [
    {"molecule": "Sodium pentosan polysulfate [pentosan sulfate]", "values": [
      {"measurement": "stimulation of PrP^Sc amplification", "setting": "[1]", "result": "stimulated PrP^Sc amplification only moderately"}
    ]},
    {"molecule": "heparan sulfate proteoglycan", "values": [
      {"measurement": "reconstitution of PrP^Sc amplification", "setting": "PrP^Sc [2]", "result": "failed to reconstitute PrP^Sc amplification"},
      {"measurement": "stimulation of PrP^Sc amplification", "setting": "[1]", "result": "stimulated PrP^Sc amplification only moderately"}
    ]},
    {"molecule": "polyadenylic acid [poly(A)]", "values": [
      {"measurement": "reconstitution of PrP^Sc amplification", "setting": "PrP^Sc [2]", "result": "failed to reconstitute PrP^Sc amplification"},
      {"measurement": "concentration at which PrP^Sc amplification was stimulated", "setting": "[1]", "result": 1, "unit": "µg/mL"},
      {"measurement": "threshold size required for stimulation of PrP^Sc amplification", "setting": "[1]", "result": "~300", "unit": "bases"},
      {"measurement": "propagation of PrP^Sc conformation in serial PMCA", "setting": "PrP^Sc [3]", "result": "stimulated the propagation process"}
    ]},
    {"molecule": "polyglutamic acid [polyglutamate]", "values": [
      {"measurement": "reconstitution of PrP^Sc amplification", "setting": "PrP^Sc [2]; benzonase-pretreated normal brain homogenate", "result": "failed to reconstitute PrP^Sc amplification"},
      {"measurement": "level of stimulation compared with control stimulation by total hamster RNA", "setting": "[1]; purified substrate", "result": "less than the level of control stimulation"}
    ]},
    {"molecule": "[Cl][Cu][Cl]", "note": "[CuCl2]", "values": [
      {"measurement": "IC50", "setting": "PrP^Sc [4]", "result": "~1", "unit": "µM"},
      {"measurement": "quantity or protease-resistance of input PrP^C or PrP^Sc molecules by themselves", "setting": "PrP^C", "result": "did not affect the quantity or protease-resistance"},
      {"measurement": "PrP^C/PrP^Sc binding, ratio of PrP^C to PrP27-30 in the pellet", "setting": "PrP^C/PrP^Sc binding", "result": 0.46}
    ]},
    {"molecule": "O=C(O)CN(CCN(CC(=O)O)CC(=O)O)CC(=O)O", "note": "[EDTA]", "values": [
      {"measurement": "effect on inhibition by CuCl2, added prior to CuCl2", "setting": "PrP^Sc [4]", "result": "prevented inhibition of PrP^Sc amplification"},
      {"measurement": "effect on inhibition by CuCl2, added shortly after CuCl2", "setting": "PrP^Sc [4]", "result": "failed to rescue PrP^Sc amplification"},
      {"measurement": "effect of chelating compounds on PrP^Sc amplification", "setting": "PrP^Sc [4]", "result": "not influenced"}
    ]},
    {"molecule": "poly(U)", "values": [
      {"measurement": "stimulation of PrP^Sc amplification using purified substrate", "setting": "[1]", "result": "potently stimulated PrP^Sc amplification"}
    ]},
    {"molecule": "[Cl][Mn][Cl]", "note": "[MnCl2]", "values": [
      {"measurement": "effect of divalent metal compound on PrP^Sc amplification", "setting": "PrP^Sc [4]", "result": "neither MnCl2 nor CoCl2 affected PrP^Sc amplification"},
      {"measurement": "effect of pre-addition on CuCl2-mediated inhibition of PrP^Sc amplification", "setting": "PrP^Sc [4]", "result": "did not influence the potency of CuCl2-mediated inhibition"}
    ]},
    {"molecule": "Cc1ccc2ccc3ccc(C)nc3c2n1", "note": "[neocuproine]", "values": [
      {"measurement": "effect of chelating compounds on PrP^Sc amplification", "setting": "PrP^Sc [4]", "result": "not influenced"}
    ]},
    {"molecule": "heparan sulfate", "values": [
      {"measurement": "stimulation of PrP^Sc amplification in the presence of copper", "setting": "[1]", "result": "No apparent stimulation"},
      {"measurement": "stimulation of PrP^Sc amplification using purified substrate", "setting": "[1]", "result": "no effect"}
    ]},
    {"molecule": "apyrase", "values": [
      {"measurement": "effect of added enzyme on PrP^Sc amplification", "setting": "Hamster Sc237 PrP^Sc", "result": "no effect"}
    ]},
    {"molecule": "heparinase III", "values": [
      {"measurement": "effect of added enzyme on PrP^Sc amplification", "setting": "Hamster Sc237 PrP^Sc", "result": "no effect"}
    ]},
    {"molecule": "Nc1ccn([C@@H]2O[C@H](CO)[C@@H](OP(=O)(O)O)[C@H]2O)c(=O)n1", "note": "[3′-cytidine monophosphate]", "values": [
      {"measurement": "inhibition of PrP^Sc amplification by RNase end-product nucleotides", "setting": "Hamster Sc237 PrP^Sc; concentrations up to 1 mM", "result": "Neither of these nucleotides inhibited PrP^Sc amplification"}
    ]},
    {"molecule": "glycogen", "values": [
      {"measurement": "stimulation of PrP^Sc amplification using purified substrate", "setting": "[1]", "result": "did not stimulate the formation of PrP^Sc"}
    ]},
    {"molecule": "Nc1nc2c(ncn2[C@@H]2O[C@H](CO)[C@H]3OP(=O)(O)O[C@H]32)c(=O)[nH]1", "note": "[cyclic 2′,3′-GMP, 2′,3′-cyclic guanosine monophosphate]", "values": [
      {"measurement": "inhibition of PrP^Sc amplification by RNase end-product nucleotides", "setting": "Hamster Sc237 PrP^Sc", "result": "Neither of these nucleotides inhibited PrP^Sc amplification"}
    ]},
    {"molecule": "DNase", "values": [
      {"measurement": "effect of added enzyme on PrP^Sc amplification", "setting": "Hamster Sc237 PrP^Sc", "result": "did not decrease PrP^Sc amplification"}
    ]},
    {"molecule": "poly(C)", "values": [
      {"measurement": "stimulation of PrP^Sc amplification using purified substrate", "setting": "[1]", "result": "failed to stimulate PrP^Sc amplification at all concentrations tested"}
    ]},
    {"molecule": "c1c[nH]cn1", "note": "[imidazole]", "values": [
      {"measurement": "effect on inhibition by CuCl2, added prior to CuCl2", "setting": "PrP^Sc [4]", "result": "prevented inhibition of PrP^Sc amplification"},
      {"measurement": "effect on inhibition by CuCl2, added shortly after CuCl2", "setting": "PrP^Sc [4]", "result": "failed to rescue PrP^Sc amplification"},
      {"measurement": "effect on PrP^Sc amplification of preparation “X”", "setting": "PrP^Sc [5]; 5 mM", "result": "restored PrP^Sc amplification"},
      {"measurement": "effect on PrP^Sc amplification of preparation “X”", "setting": "PrP^Sc [5]; 50 mM", "result": "restored the ability of this preparation to serve as a substrate"},
      {"measurement": "effect on PrP^Sc amplification of preparation “X”", "setting": "PrP^Sc [5]; 250 mM", "result": "inhibited PrP^Sc amplification"}
    ]},
    {"molecule": "[Cl-].[Cl-].[Zn+2]", "note": "[ZnCl2]", "values": [
      {"measurement": "IC50", "setting": "PrP^Sc [4]", "result": "~10", "unit": "µM"}
    ]}
  ]
}
